The text below walks through data of US6656971B2, “Trisubstituted carbocyclic cyclophilin binding compounds and their use” (Guilford Pharmaceuticals Inc., priority 2001, dated 2003).

Sequence of human recombinant CyPA (P62937 whole entry): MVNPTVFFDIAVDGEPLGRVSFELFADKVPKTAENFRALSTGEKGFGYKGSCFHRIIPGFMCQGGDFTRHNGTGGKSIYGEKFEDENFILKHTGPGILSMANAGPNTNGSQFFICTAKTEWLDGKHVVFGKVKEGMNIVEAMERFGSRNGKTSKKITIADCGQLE

The first assay deals with human recombinant CyPA (Homo sapiens, UniProt P62937). The assay is described as follows: Semiautomated microtiter plate assay of rotamase activity inhibition, human recombinant CyPA. Type of assay: biochemical. The conditions noted are these: Table B, value without asterisk: human recombinant CyPA. As for the experimental part:
Rotamase inhibition was determined using a semiautomated microtiter plate assay modification of the above described assay [see Küllertz et al., Clin. Chem. 44, 502-508 (1998)]. All dilutions of CyPA, peptide substrate, and chymotrypsin were made in 35 mM ice-cold HEPES buffer. Fifty μL of CyPA solution is added to 50 μL of the peptide substrate solution (Phe-Pro-Phe p-nitroanilide, 0.16 mg/ml) in a glass microtiter well plate (the concentration of human recombinant CyP being adjusted so that the reaction rate is increased by a factor of 3 as compared to an uncatalyzed control reaction wherein the peptide substrate is degraded by chymotrypsin alone, in the absence of CyPA and test compound). Using a Beckman Multimek™ 96 automated 96-channel pipettor, 5 μL of test compound solution, or a DMSO blank, were added to each well for a 30 minute preincubation at 4° C. One hundred μL of chymotrypsin solution (1 mg/mL) were added to each well and the absorbance at 390 nm versus time was monitored for 9-10 minutes using a BioRad Ultramark plate reader maintained at 4° C. and the rate constants were determined from the absorbance versus time data files.
IC50 values which were obtained for representative compounds are presented in the following Table B. The cyclophilin utilized was a human recombinant CyPA. […] While CyP A was used in these examples, other CyP proteins can be substituted.
Broadly, the IC50 is the midpoint of a concentration-inhibition curve. Regarding `CS/C(=N\c1cc(Cl)cc(Cl)c1)Nc1cc(NC(=O)c2cc(Cl)cc(Cl)c2)cc(Nc2cccc(C(F)(F)F)c2)c1` [Compound 9, N-(5-{[2-aza-2-(3,5-dichlorophenyl)-1-methylthiovinyl]amino}-3-{[3-(trifluoromethyl)phenyl]amino}phenyl)(3,5-dichlorophenyl)formamide], the IC50 amounted to 1580 nM.

Regarding `O=C(Nc1cc(COc2ccc(Cl)c(Cl)c2)cc(NC(=O)c2cc(Cl)cc(Cl)c2)c1)c1cc(Cl)cc(Cl)c1` [Compound 6, 1,3-(3,5-Dichlorophenyl)-N-[5-(3,4-dichlorophenoxymethyl)-phenyl]amide], the IC50 came out at 3790 nM.

Consider `O=C(Nc1cccc(C(F)(F)F)c1)c1cc(C(=O)Nc2cccc(C(F)(F)F)c2)cc(-c2ccc3ccccc3c2)c1` [Compound 18, (5-(2-naphthyl)-3-{N-[3-(trifluoromethyl)phenyl]carbamoyl}phenyl)-N-[3-(trifluoromethyl)phenyl]formamide], for which the IC50 turned out to be 1320 nM.

For `N#Cc1cccc(NC(=O)c2cc(OCc3ccc(-c4ccccc4C#N)cc3)cc(C(=O)Nc3cccc(C#N)c3)c2)c1` [Compound 22, 1-[4-(2-cyanophenyl)benzyl]loxy-3,5-bis-[(3-cyanophenyl)aminocarbonyl]benzene], the IC50 is 4710 nM.

On to `CC(C)(C)OC(=O)NCCCCCCNC(=O)c1cc(NC(=O)Nc2cc(Cl)cc(Cl)c2)cc(C(=O)Nc2cccc(C(F)(F)F)c2)c1` [Compound 4, {6-[3-[3-(3,5-Dichloro-phenyl)-ureido]-5-(3-trifluoromethyl-phenylcarbamoyl)-benzoylamino]hexyl}carbamic acid tert-butyl ester], for which the IC50 worked out at 833 nM.

Turning to `O=C(Nc1cccc(C(F)(F)F)c1)c1cc(Oc2ccc3ccccc3c2)cc(C(=O)Nc2cccc(C(F)(F)F)c2)c1` [Compound 17, (5-(2-naphthyloxy)-3-{N-[3-(trifluoromethyl)phenyl]carbamoyl}phenyl)-N-[3-(trifluoromethyl)phenyl]formamide], the IC50 came out at 1980 nM.

For `O=S(=O)(Nc1cc(COc2ccc(Cl)c(Cl)c2)cc(NS(=O)(=O)c2cccc3ccccc23)c1)c1cccc2ccccc12` [Compound 7, 1,3-(1-Naphthalene)-N-[5-(3,4-dichloro-phenoxymethyl)-phenyl]-sulfonamide], the IC50 is 2110 nM.

Consider `S=C(Nc1cc(Cl)cc(Cl)c1)Nc1ccc(Nc2ccc(Oc3ccccc3)cc2)c(NC(=S)Nc2cc(Cl)cc(Cl)c2)c1` [Compound 40, [(3,5-dichlorophenyl)amino]{[3-({[(3,5-dichlorophenyl)amino]thioxomethyl}amino)-4-[(4-phenoxyphenyl)amino]phenyl]amino}methane-1-thione], for which the IC50 was 719 nM.

For `O=C(Nc1cccc(C(F)(F)F)c1)c1cc(O)cc(C(=O)Nc2cccc(C(F)(F)F)c2)c1` [Compound 2, 5-Hydroxy-N,N′-bis-(3-trifluoromethyl-phenyl)-isophthalamide], the IC50 was found to be 15900 nM.

Consider “3-{3,5-Bis-[3-(3,5-dichlorophenyl)ureido]-phenyl}propionic acid methyl ester [Compound 5]”, for which the IC50 is 1300 nM.

On to `O=C(Nc1cc(CN2C(=O)c3ccccc3C2=O)cc(NC(=O)c2cccc(C(F)(F)F)c2)c1)c1cccc(C(F)(F)F)c1` [Compound 12, N-(5-[(1,3-dioxoisoindolin-2-yl)methyl]-3-{[3-(trifluoromethyl)phenyl]carbonylamino}phenyl)[3-(trifluoromethyl)phenyl]formamide], for which the IC50 worked out at 7710 nM.

In the case of `O=C(NCCc1ccc(Cl)c(Cl)c1)c1cc(COc2ccc(Cl)c(Cl)c2)cc(C(=O)NCCc2ccc(Cl)c(Cl)c2)c1` [Compound 19, 1-[(3,4-dichlorophenyl)oxymethy]-3,5-bis-{[2-(3,4-dichlorophenyl)ethyl]aminocarbonyl}benzene], the IC50 was found to be 2800 nM.

Consider “[(3,5-dichlorophenyl)amino]{[3-({[(3,5-dichlorophenyl) amino]thioxo-methyl}amino)-4-(3,5-dimethylpyrazolyl)phenyl]amino}methane-1-thione [Compound 39]”, for which the IC50 worked out at 1120 nM.

With `O=C(Nc1cccc(C(F)(F)F)c1)c1cc(C(=O)Nc2cccc(C(F)(F)F)c2)cc(-c2cccc3ccccc23)c1` [Compound 3, 5-Naphthalen-1-yl-N,N′-bis-(3-trifluoromethyl-phenyl)isophthalamide], the IC50 worked out at 3420 nM.

As for “(5-(2-(2-naphthyl)ethyl)-3-{N-[3-(trifluoromethyl)phenyl]carbamoyl}phenyl)-N-[3-(trifluoromethyl)phenyl]formamide [Compound 24]”, the half-maximal inhibitory concentration (IC50) was 7170 nM.

As to `O=S(=O)(c1cc(Cl)cc(Cl)c1)N(c1ccc(Br)c(N(S(=O)(=O)c2cc(Cl)cc(Cl)c2)S(=O)(=O)c2cc(Cl)cc(Cl)c2)c1)S(=O)(=O)c1cc(Cl)cc(Cl)c1` [Compound 30, bis[(3,5-dichlorophenyl)sulfonyl](3-{bis[(3,5-dichlorophenyl)sulfonyl]amino)-4-bromophenyl)amine], the IC50 is 10000 nM.

Take `O=C(Nc1cccc(C(F)(F)F)c1)c1cc(OCc2ccccc2)cc(OCc2ccccc2)c1` [Compound 8, 3,5-Di(benzyloxy)-3′-(trifluoromethyl)benzanilid]: the IC50 was found to be 4760 nM.

Turning to `S=C(Nc1cc(Cl)cc(Cl)c1)Nc1cc(NC(=S)Nc2cc(Cl)cc(Cl)c2)cc(Nc2ccc(Br)cc2)c1` [Compound 11, [(3,5-dichlorophenyl)amino]{[3-({[(3,5-dichlorophenyl)amino]thioxomethyl}amino)-5-[(4-bromophenyl)amino]phenyl]amino}methane-1-thione], the IC50 was determined as 807 nM.

With “(3,5-dichlorophenyl)-N-[5-({[(3,5-dichlorophenyl)amino]thioxomethyl}amino)-3-{[3-(trifluoromethyl)phenyl]amino }phenyl]formamide [Compound 10]”, the IC50 is 933 nM.

On to “(5-(2-(2-5,6,7,8-tetrahydronaphthyl)ethyl)-3-{N-[3-(trifluoromethyl)phenyl]carbamoyl}phenyl)-N-[3-(trifluoromethyl)phenyl]formamide [Compound 23]”, for which the IC50 is 7850 nM.

For `COC(=O)CCc1cc(NC(=O)Nc2cc(Cl)cc(Cl)c2)cc(NC(=O)Nc2cc(Cl)cc(Cl)c2)c1` [Compound 1, 3-{3,5-Bis-[3-(3,5-dichloro-phenyl)-ureido]-phenyl}-propionic acid methyl ester], the IC50 is 2940 nM.

In the case of `O=C(Nc1cc(CNCc2cccc3ccccc23)cc(NC(=O)c2cccc(C(F)(F)F)c2)c1)c1cccc(C(F)(F)F)c1` [Compound 14, N-(5-{[(naphthylmethyl)amino]methyl}-3-{[3-(trifluoromethyl)phenyl]carbonyl-amino}phenyl)[3-(trifluoromethyl)phenyl]formamide], the IC50 was 15100 nM.

Regarding `O=C(CCCCc1ccccc1)Nc1cc(Br)cc(C(=O)NNC(=S)Nc2ccc(Cl)c(Cl)c2)c1` [Compound 53, 1-{3-[(5-Phenyl)valeroylamino]-5-bromobenzoyl}-4-(3,4-dichlorophenyl) thiosemicarbazide], the IC50 stood at 392 nM.

For the next assay, the target named is T1, recombinant rat CyPA-GST fusion protein (Rattus norvegicus, UniProt P10111).
T1 construct: made in house; host or cells: E. coli BL21
T1 sequence (P10111 2-164): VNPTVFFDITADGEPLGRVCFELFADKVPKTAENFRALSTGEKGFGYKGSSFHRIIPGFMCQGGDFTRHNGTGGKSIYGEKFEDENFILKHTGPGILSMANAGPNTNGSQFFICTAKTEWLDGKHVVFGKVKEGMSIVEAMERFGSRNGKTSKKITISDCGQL
The assay is described as follows: Rotamase (PPIase) inhibition, chymotrypsin-coupled cuvette assay, rat CyPA-GST fusion protein. The format is biochemical. The settings on record: Table A, value with asterisk: recombinant rat CyPA-GST fusion protein.
Regarding `S=C(Nc1cc(Cl)cc(Cl)c1)Nc1ccc(Nc2ccc(Cl)cc2)c(NC(=S)Nc2cc(Cl)cc(Cl)c2)c1` [Compound 36, [(3,5-dichlorophenyl)amino]{[3-({[(3,5-dichlorophenyl)amino]thioxo-methyl}amino)-4-[(4-chlorophenyl)amino]phenyl]amino}methane-1-thione], the IC50 came to 609 nM.

For the compound `COc1ccc(NC(=S)Nc2cc(Cl)cc(Cl)c2)cc1COc1cc(Cl)cc(Cl)c1` [Compound 45, 1-[3-(3,5-Dichlorophenoxy)methyl-4-methoxyphenyl]-3-(3,5-dichlorophenyl)thiourea], the IC50 was 609 nM.

Consider `COc1ccc(NC(=O)C(c2ccccc2)c2ccccc2)cc1OCc1cccc2ccccc12` [Compound 49, N-[4-methoxy-3-(naphthylmethoxy)phenyl]-2,2-diphenylethanamide], for which the IC50 is 1020 nM.

With `O=C1c2ccccc2C(=O)N1Cc1cc(NC(=S)Nc2cc(Cl)cc(Cl)c2)cc(NC(=S)Nc2cc(Cl)cc(Cl)c2)c1` [Compound 27, 2-{[3,5-bis({[(3,5-dichlorophenyl)amino]thioxomethyl}amino)phenyl]methyl}iso-indoline-1,3-dione], the IC50 worked out at 214 nM.

For `O=C(Nc1cc(S(=O)(=O)NC(c2ccccc2)c2ccccc2)ccc1Cl)c1cc(Cl)cc(Cl)c1` [Compound 52, (3,5-Dichlorophenyl)-N-(5-{[(diphenylmethyl)amino]sulfonyl}-2-chlorophenyl)formamide], the IC50 worked out at 861 nM.

For the compound `COc1ccc(NS(=O)(=O)c2cccc3ccccc23)cc1OCCc1cccc2ccccc12` [Compound 50], the IC50 worked out at 978 nM.

For `S=C(Nc1cc(Cl)cc(Cl)c1)Nc1cc(OCc2cccc3ccccc23)ccc1Br` [Compound 33, [(3,5-Dichlorophenyl)amino]{[2-bromo-5-(naphthylmethoxy)phenyl]amino}methane-1-thione], the IC50 is 707 nM.

In the case of `COc1ccc(NC(=O)Cc2cccc3ccccc23)cc1OCc1cccc2ccccc12` [Compound 48, N-[4-methoxy-3-(naphthylmethoxy)phenyl]-2-naphthylethanamide], the IC50 came out at 1190 nM.
